Measurements published in ChEMBL document CHEMBL4622846, “Synthesis and cytotoxic effects of 2-thio-3,4-dihydroquinazoline derivatives as novel T-type calcium channel blockers” (Bioorg Med Chem, 2020).
Activity calls are given as the source filed them. No cut-off for these calls is given here.

Legend:
[1] = biological target: T1, Voltage-dependent T-type calcium channel subunit alpha-1I (Homo sapiens, UniProt Q9P0X4); test: Inhibition of human Cav3.3 expressed in tsA-201 cells by patch clamp electrophysiology; assay type: cell-based
[2] = biological target: T2, Voltage-dependent T-type calcium channel subunit alpha-1G (Homo sapiens, UniProt O43497); test: Inhibition of human Cav3.1 expressed in tsA-201 cells by patch clamp electrophysiology; assay type: cell-based
[3] = biological target: T2, Voltage-dependent T-type calcium channel subunit alpha-1G; test: Inhibition of human Cav3.1 expressed in tsA-201 cells at 10uM by patch clamp electrophysiology; assay type: cell-based
[4] = test system: A549; test: Cytotoxicity against human A549 cells assessed as reduction in cell viability after 48 hrs by MTT assay; assay type: functional, cell-based; conditions: A549, 48 h
[5] = biological target: T3, Voltage-dependent T-type calcium channel subunit alpha-1H (Homo sapiens, UniProt O95180); test: Inhibition of human Cav3.2 expressed in tsA-201 cells by patch clamp electrophysiology; assay type: cell-based
[6] = test system: HCT-116; test: Cytotoxicity against human HCT116 cells assessed as reduction in cell viability after 48 hrs by MTT assay; assay type: functional, cell-based; conditions: HCT-116, 48 h
[7] = biological target: T1, Voltage-dependent T-type calcium channel subunit alpha-1I; test: Inhibition of human Cav3.3 expressed in tsA-201 cells at 10uM by patch clamp electrophysiology; assay type: cell-based
[8] = biological target: T3, Voltage-dependent T-type calcium channel subunit alpha-1H; test: Inhibition of human Cav3.2 expressed in tsA-201 cells at 10uM by patch clamp electrophysiology; assay type: cell-based

T2 sequence (O43497 whole entry): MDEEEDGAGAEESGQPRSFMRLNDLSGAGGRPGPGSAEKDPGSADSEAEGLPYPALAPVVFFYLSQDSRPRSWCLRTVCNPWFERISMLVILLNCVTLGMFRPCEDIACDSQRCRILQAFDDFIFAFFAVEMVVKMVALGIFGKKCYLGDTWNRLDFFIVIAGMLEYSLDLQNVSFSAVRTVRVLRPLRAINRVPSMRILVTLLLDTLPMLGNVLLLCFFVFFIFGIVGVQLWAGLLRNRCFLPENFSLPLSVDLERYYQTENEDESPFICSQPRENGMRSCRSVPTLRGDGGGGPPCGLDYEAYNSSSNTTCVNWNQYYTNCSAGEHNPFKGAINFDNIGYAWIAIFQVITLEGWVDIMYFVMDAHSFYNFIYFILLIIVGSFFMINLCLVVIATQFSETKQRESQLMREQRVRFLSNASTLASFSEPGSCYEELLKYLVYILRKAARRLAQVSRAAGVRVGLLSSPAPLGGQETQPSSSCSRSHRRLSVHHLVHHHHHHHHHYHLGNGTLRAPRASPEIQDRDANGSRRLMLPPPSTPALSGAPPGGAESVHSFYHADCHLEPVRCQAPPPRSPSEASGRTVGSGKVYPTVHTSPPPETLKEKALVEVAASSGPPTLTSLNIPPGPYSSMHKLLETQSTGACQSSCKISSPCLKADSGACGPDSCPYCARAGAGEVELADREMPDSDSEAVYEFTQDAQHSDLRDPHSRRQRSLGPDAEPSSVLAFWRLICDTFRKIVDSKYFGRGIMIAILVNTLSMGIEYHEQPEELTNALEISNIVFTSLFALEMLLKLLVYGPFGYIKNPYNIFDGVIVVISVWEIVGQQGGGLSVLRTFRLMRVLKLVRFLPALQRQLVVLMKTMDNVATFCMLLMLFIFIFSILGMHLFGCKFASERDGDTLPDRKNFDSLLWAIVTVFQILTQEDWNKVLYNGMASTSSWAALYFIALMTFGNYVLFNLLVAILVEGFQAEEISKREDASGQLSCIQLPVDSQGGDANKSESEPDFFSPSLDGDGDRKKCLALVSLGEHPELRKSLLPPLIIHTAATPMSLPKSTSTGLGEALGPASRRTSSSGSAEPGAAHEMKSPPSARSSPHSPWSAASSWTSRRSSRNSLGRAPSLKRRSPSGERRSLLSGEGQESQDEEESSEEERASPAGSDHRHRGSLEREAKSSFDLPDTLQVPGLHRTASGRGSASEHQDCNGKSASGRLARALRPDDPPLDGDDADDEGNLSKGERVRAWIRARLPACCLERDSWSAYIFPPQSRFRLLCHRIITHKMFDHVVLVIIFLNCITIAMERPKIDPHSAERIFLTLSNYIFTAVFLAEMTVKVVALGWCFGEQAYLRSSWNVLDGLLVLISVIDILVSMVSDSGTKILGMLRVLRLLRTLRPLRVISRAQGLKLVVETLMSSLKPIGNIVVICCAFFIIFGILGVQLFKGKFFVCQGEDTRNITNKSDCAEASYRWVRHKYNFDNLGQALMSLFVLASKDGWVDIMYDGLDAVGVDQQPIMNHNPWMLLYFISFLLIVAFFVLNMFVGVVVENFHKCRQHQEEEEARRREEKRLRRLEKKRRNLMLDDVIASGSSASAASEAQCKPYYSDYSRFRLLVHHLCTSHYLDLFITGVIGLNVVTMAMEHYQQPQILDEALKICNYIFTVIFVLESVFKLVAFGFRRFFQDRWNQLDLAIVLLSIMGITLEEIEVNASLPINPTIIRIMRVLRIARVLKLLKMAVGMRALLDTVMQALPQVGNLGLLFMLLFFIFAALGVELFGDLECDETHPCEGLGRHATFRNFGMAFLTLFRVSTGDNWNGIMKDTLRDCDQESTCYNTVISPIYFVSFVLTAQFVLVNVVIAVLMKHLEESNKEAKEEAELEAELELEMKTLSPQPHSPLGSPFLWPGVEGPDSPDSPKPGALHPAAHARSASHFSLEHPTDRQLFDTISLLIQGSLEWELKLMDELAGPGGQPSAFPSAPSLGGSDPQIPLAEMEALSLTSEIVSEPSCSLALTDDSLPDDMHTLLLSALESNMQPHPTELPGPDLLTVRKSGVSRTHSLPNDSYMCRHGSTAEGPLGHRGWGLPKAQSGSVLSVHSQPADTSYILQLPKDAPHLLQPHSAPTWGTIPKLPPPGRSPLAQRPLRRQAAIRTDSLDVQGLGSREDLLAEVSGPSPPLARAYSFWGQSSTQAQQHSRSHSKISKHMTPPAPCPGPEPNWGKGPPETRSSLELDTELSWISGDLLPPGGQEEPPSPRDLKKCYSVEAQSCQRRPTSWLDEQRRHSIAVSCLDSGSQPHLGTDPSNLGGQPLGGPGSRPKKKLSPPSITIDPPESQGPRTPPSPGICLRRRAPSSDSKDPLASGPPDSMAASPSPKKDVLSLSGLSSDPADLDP
T1 sequence (Q9P0X4 whole entry): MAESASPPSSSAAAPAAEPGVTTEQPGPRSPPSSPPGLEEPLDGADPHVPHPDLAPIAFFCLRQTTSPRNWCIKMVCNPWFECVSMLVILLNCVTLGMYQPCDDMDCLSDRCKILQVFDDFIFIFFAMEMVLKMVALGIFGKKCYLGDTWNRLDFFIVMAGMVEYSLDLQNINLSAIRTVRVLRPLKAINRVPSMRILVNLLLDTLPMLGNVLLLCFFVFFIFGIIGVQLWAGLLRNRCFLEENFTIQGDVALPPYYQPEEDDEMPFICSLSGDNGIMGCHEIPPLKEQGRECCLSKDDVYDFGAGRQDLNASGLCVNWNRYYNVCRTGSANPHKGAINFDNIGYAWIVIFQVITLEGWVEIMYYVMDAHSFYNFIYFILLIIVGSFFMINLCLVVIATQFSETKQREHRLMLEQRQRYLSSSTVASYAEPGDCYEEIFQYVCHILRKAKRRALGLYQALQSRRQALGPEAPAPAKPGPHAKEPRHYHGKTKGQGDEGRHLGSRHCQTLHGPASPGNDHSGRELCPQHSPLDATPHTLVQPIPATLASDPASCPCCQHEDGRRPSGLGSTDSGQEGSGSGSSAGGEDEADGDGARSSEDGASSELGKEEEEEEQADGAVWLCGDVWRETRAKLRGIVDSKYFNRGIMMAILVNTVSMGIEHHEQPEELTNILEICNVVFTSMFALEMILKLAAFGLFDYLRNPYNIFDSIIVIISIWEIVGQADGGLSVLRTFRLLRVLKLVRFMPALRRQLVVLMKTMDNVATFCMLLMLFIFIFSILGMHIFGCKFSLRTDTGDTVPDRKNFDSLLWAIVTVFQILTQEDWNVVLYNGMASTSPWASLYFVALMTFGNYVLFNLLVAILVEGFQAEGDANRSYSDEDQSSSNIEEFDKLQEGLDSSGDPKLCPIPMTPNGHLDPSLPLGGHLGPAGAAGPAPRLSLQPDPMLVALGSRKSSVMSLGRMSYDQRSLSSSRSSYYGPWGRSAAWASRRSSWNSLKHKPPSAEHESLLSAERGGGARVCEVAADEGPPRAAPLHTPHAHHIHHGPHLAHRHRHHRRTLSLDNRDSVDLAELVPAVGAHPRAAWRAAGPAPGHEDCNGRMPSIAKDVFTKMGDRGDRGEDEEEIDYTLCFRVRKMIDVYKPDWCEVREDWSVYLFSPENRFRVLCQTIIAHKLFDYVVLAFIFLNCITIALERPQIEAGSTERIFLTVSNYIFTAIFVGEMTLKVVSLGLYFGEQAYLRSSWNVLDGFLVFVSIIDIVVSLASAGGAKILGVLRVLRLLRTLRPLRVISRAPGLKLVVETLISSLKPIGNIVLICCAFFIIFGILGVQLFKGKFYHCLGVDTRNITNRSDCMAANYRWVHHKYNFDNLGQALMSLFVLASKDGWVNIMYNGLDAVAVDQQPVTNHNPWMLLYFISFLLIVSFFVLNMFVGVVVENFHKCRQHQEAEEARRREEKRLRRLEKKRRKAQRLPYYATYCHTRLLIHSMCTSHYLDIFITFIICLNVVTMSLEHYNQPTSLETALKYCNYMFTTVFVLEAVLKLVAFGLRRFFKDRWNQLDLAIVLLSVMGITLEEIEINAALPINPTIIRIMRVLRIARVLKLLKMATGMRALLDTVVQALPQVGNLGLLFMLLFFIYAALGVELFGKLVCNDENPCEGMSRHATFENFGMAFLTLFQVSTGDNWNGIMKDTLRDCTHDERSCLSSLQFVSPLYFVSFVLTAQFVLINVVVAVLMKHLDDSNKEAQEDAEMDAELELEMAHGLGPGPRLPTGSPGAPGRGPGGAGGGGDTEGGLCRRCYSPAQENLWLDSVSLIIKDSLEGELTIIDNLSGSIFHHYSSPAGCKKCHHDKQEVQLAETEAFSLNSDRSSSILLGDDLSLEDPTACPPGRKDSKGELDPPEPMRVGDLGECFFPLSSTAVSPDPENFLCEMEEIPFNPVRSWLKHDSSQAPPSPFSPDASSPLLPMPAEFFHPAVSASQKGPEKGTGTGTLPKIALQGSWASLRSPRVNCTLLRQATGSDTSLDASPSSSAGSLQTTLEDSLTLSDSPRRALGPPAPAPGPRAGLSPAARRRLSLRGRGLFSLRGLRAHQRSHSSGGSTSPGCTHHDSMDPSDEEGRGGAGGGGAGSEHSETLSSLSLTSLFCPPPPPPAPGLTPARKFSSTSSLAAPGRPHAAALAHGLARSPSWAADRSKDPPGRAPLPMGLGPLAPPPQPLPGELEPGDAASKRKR

| IC50 ([1]; read-out: IC50) [µM] | IC50 [2] [µM] | inhibition [3] [%] | IC50 [5] [µM] | inhibition [7] | inhibition [8] [%] | IC50 [1] | Compound | IC50 [4] [µM] | IC50 [6] [µM] |
| --- | --- | --- | --- | --- | --- | --- | --- | --- | --- |
| 1.76 | 7.77 | 76.2 | 2.4 | 85.6% | 83.9 |  | CN(C)CCCCCSC1=Nc2ccccc2C(CC(=O)NCc2ccccc2)N1c1ccc(-c2ccccc2)cc1 (stereo unspecified) | 18.1 | 9.6 |
| 6.1 | 27.4 | 31 | 3.14 | 69.3% | 83.1 |  | CN(C)CCCCCSC1=Nc2ccccc2C(CC(=O)NCc2ccc(F)cc2)N1c1ccc(-c2ccccc2)cc1 (stereo unspecified) | 5 | 6.4 |
| 13.6 | 15 | 51.5 | 276 | 55.9% | 69 |  | O=C(CC1c2ccccc2N=C(SCCCCCN2CCCC2)N1c1ccc(-c2ccccc2)cc1)NCc1ccc(F)cc1 (stereo unspecified) | 19.8 | 6.2 |
| 19.8 | 12.6 | 83.9 | 4.88 | 35.1% | 76.6 |  | O=C(CC1c2ccccc2N=C(SCCCCCN2CCCC2)N1c1ccc(-c2ccc(F)cc2)cc1)NCc1ccc(F)cc1 (stereo unspecified) | 12.6 | 7.7 |
| 9.06 | 0.25 | 97.6 | 4.18 | 66.7% | 75.6 |  | CN(C)CCCCCSC1=Nc2ccccc2C(CC(=O)NCc2ccccc2)N1c1ccc(-c2ccc(F)cc2)cc1 (stereo unspecified) | 17.6 | 9.2 |
| 3.2 | 18.5 | 46.5 | 13.8 | 76% | 51.8 |  | CN(C)CCCCCSC1=Nc2ccccc2C(CC(=O)NCc2ccccc2)N1c1ccccc1 (stereo unspecified) | 138 | 38.8 |
| 0.96 | 0.4 | 96.2 | 2.76 | 92% | 84.8 |  | CN(C)CCCCCSC1=Nc2ccccc2C(CC(=O)NCc2ccc(F)cc2)N1c1ccc(-c2ccc(F)cc2)cc1 (stereo unspecified) | 11.3 | 9.3 |
|  |  |  |  |  | 89.3 |  | CN(C)CCCCCN(C)C1=Nc2ccccc2C(CC(=O)NCc2ccccc2)N1c1ccc(-c2ccccc2)cc1 (stereo unspecified) |  | 5.6 |
|  |  | 26.7 | 832 | inactive | 7 | Not Active | CN(C)CCCCCSC1=Nc2ccccc2C(CC(=O)NCc2ccc(F)cc2)N1c1ccccc1 (stereo unspecified) | 36.8 | 38.8 |
| 0.81 | 0.66 | 93.9 | 6.9 | 92.7% | 73.1 |  | O=C(CC1c2ccccc2N=C(SCCCCCN2CCCC2)N1c1ccc(-c2ccccc2)cc1)NCc1ccccc1 (stereo unspecified) | 14.9 | 5.5 |
| 5.1 | 2.18 | 83.9 | 0.26 | 68.2% | 97.5 |  | O=C(CC1c2ccccc2N=C(SCCCCCN2CCCC2)N1c1ccc(-c2ccc(F)cc2)cc1)NCc1ccccc1 (stereo unspecified) | 17.8 | 12.5 |
|  | 13.5 | 60.1 | 57.4 | 22.1% | 40 |  | O=C(CC1c2ccccc2N=C(SCCCCCN2CCCC2)N1c1ccccc1)NCc1ccc(F)cc1 (stereo unspecified) | 89.9 | 27.1 |
| 6.19 | 77 | 60.4 | 7.71 | 78.3% | 61.6 |  | O=C(CC1c2ccccc2N=C(SCCCCCN2CCCC2)N1c1ccccc1)NCc1ccccc1 (stereo unspecified) | 98.1 | 31.3 |
